Data reported in publication PMC7186572, “Functional Identification and Structural Analysis of a New Lipoate Protein Ligase in Mycoplasma hyopneumoniae” (Frontiers in Cellular and Infection Microbiology, 2020).

Tests used:
[1] = target: T1, Mhp-Lpl (Mesomycoplasma hyopneumoniae, UniProt Q4AA29); experiment: X-ray crystallography, […] Å; type: binding; details: enzyme reacted with ATP and lipoic acid, then further purified and crystallised; partial occupancy; active site; reaction intermediate; an unidentified AMP-fatty acid co-purifies from E. coli
T1 construct: gene lplA-1; full length, 343 residues, C-terminal His tag, pET32a NdeI/XhoI, synthetic E. coli codon-optimised gene (TGA to TGG), expressed in E. coli BL21(DE3), about 40 kDa
T1 sequence (Q4AA29 1-342 limits assumed): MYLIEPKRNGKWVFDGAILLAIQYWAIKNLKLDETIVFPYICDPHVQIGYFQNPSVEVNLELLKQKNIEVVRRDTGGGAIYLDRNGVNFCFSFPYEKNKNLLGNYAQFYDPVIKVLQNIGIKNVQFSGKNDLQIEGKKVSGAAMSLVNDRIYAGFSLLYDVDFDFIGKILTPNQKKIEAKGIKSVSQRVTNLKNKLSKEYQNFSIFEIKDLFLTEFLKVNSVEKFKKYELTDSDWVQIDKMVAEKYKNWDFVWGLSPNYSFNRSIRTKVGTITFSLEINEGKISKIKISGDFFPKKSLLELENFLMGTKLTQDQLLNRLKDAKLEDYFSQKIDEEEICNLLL

[2] = target: T2, large domain of Mhp-Lpl (ML) (Mesomycoplasma hyopneumoniae, UniProt Q4AA29); experiment: western blot of GcvH lipoylation with anti-lipoic acid antibody; type: biochemical; details: 1 mM lipoic acid, 5 mM ATP, 1 mM MgCl2, 5 mM DTT, 20 μM apo Mhp H as acceptor, pH 7.0, 37 °C, 4 h
T2 construct: gene lplA-1; large N-terminal domain, residues 1-254, C-terminal His tag, pET32a, expressed in E. coli BL21(DE3)
T2 sequence (Q4AA29 1-256 limits assumed): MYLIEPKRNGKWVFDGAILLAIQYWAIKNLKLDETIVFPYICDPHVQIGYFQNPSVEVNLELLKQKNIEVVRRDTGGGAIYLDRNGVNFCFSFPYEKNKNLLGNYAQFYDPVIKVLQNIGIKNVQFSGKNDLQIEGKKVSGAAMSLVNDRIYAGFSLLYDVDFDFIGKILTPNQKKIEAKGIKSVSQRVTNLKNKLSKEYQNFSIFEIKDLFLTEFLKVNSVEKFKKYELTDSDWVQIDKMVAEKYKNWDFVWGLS

[3] = target: T1, Mhp-Lpl; experiment: as above; type: biochemical; details: 1 mM lipoic acid, 5 mM ATP, 1 mM MgCl2, 5 mM DTT, 20 μM apo Mhp H as acceptor, pH 7.0, 37 °C, 4 h
[4] = target: T3, E. coli LplA (Escherichia coli, UniProt P32099); experiment: as above; type: biochemical; details: 1 mM lipoic acid, 5 mM ATP, 1 mM MgCl2, 5 mM DTT, 20 μM apo E. coli GcvH as acceptor, pH 7.0, 37 °C, 4 h
T3 construct: full length, C-terminal His tag, pET32a NdeI/XhoI, expressed in E. coli BL21(DE3)
T3 sequence (P32099 2-338): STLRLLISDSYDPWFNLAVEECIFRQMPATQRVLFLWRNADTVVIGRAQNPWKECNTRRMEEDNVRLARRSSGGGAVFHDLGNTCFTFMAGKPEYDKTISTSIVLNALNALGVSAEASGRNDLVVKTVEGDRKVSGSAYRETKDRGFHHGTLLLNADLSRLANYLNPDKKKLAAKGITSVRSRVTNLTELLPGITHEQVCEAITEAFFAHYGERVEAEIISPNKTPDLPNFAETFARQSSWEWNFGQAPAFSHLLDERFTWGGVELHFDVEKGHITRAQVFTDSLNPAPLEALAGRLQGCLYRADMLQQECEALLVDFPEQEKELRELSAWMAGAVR

SMILES	X-ray crystallography, 2.45 Å [1]	western blot of GcvH lipoylation with anti-lipoic acid antibody [2]	western blot of GcvH lipoylation with anti-lipoic acid antibody [3]	western blot of GcvH lipoylation with anti-lipoic acid antibody [4]
Nc1ncnc2c1ncn2[C@@H]1O[C@H](COP(=O)(O)OC(=O)CCCC[C@@H]2CCSS2)[C@@H](O)[C@H]1O [lipoyl-AMP]	lipoyl-AMP could be modeled into the density, despite its partial occupancy	–	–	–
Nc1ncnc2c1ncn2[C@@H]1O[C@H](COP(=O)(O)OP(=O)(O)OP(=O)(O)O)[C@@H](O)[C@H]1O [ATP]	–	including activation of lipoic acid with ATP to form lipoyl-AMP	Mhp-Lpl catalyzes the ATP-dependent activation of lipoate to lipoyl-AMP	–
O=C(O)CCCC[C@@H]1CCSS1 (racemic) [lipoic acid]	–	the large domain is able to catalyze Mhp H lipoylation	lipoic acid was successfully transferred to the Mhp H protein by the MHP_RS01680-encoded protein	E. coli LplA could successfully transfer lipoic acid to E. coli GcvH
